Measured values reported in ChEMBL document CHEMBL4419163, “Assays for identifying compounds that modulate bitter taste” (2014).

Key:
Type in all cases: functional, cell-based
[1] = molecular target: T1, Taste receptor type 2 member 10 (Homo sapiens) (UniProt Q9NYW0); assay: Agonist activity at human TAS2R10 expressed in HEK293T cells co-expressing Galpha15 assessed as increase in intracellular calcium level at 20 mM by Calcium-3 dye based fluorescence assay relative to control
T1 sequence (whole entry): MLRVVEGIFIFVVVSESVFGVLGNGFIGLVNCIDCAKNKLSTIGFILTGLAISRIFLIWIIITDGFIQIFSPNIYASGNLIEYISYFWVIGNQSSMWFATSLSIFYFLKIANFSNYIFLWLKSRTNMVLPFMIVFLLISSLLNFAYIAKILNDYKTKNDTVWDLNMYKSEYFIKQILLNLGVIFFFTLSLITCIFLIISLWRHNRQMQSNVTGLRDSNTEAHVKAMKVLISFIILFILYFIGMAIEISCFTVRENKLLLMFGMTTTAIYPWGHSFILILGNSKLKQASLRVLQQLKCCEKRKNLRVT

[2] = molecular target: T2, Taste receptor type 2 member 16 (Homo sapiens) (UniProt Q9NYV7); assay: Agonist activity at human TAS2R16 expressed in HEK293T cells co-expressing Galpha15 assessed as increase in intracellular calcium level at 20 mM by Calcium-3 dye based fluorescence assay relative to control
T2 sequence (whole entry): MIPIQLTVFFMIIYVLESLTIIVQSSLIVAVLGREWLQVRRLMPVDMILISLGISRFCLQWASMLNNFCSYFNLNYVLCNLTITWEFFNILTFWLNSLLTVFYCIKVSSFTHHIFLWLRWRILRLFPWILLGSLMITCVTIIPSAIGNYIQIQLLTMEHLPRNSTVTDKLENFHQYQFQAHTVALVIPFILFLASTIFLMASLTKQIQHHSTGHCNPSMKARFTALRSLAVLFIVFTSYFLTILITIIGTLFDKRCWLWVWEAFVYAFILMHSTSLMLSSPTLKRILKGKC

[3] = molecular target: T3, Taste receptor type 2 member 43 (Homo sapiens) (UniProt P59537); assay: Agonist activity at human TAS2R43 expressed in HEK293T cells co-expressing Galpha15 assessed as increase in intracellular calcium level at 20 mM by Calcium-3 dye based fluorescence assay relative to control
T3 sequence (whole entry): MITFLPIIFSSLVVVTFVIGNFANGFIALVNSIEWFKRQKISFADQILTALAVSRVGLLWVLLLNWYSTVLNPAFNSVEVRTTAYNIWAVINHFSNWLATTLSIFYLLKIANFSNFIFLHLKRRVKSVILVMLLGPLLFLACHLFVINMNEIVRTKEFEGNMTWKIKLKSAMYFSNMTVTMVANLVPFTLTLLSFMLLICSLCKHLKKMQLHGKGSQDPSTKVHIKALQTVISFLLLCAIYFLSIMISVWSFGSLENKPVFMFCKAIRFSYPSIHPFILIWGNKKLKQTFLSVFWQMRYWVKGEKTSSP

[4] = molecular target: T4, Taste receptor type 2 member 3 (Homo sapiens) (UniProt Q9NYW6); assay: Agonist activity at human TAS2R3 expressed in HEK293T cells co-expressing Galpha15 assessed as increase in intracellular calcium level at 20 mM by Calcium-3 dye based fluorescence assay relative to control
T4 sequence (whole entry): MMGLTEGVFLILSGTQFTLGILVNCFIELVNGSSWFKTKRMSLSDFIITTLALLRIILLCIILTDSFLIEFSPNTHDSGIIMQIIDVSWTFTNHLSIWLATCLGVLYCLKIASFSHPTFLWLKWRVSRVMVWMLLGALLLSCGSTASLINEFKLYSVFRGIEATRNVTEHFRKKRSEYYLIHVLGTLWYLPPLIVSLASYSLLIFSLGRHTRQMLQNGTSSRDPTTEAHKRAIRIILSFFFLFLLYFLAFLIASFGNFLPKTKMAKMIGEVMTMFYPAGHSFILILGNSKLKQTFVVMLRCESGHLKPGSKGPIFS

[5] = molecular target: T5, Taste receptor type 2 member 5 (Homo sapiens) (UniProt Q9NYW4); assay: Agonist activity at human TAS2R5 expressed in HEK293T cells co-expressing Galpha15 assessed as increase in intracellular calcium level at 20 mM by Calcium-3 dye based fluorescence assay relative to control
T5 sequence (whole entry): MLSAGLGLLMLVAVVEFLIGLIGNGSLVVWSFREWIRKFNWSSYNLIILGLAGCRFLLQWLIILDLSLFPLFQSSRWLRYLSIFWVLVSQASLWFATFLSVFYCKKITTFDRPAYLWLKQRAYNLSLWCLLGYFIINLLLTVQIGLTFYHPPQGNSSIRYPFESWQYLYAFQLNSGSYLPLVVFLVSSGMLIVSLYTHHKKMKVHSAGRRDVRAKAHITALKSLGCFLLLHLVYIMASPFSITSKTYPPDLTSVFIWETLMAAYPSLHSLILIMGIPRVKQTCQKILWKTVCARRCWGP

[6] = molecular target: T6, Taste receptor type 2 member 19 (Homo sapiens) (UniProt P59542); assay: Agonist activity at human TAS2R48 expressed in HEK293T cells co-expressing Galpha15 assessed as increase in intracellular calcium level at 20 mM by Calcium-3 dye based fluorescence assay relative to control
T6 sequence (whole entry): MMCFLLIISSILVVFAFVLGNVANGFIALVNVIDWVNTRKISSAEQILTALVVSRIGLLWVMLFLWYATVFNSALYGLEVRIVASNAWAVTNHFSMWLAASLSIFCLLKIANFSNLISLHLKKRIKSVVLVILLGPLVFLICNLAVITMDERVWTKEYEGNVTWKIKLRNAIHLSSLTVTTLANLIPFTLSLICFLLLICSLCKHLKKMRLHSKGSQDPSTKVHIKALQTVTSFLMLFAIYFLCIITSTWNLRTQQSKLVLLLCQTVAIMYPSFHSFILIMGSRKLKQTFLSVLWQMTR

[7] = molecular target: T7, Taste receptor type 2 member 7 (Homo sapiens) (UniProt Q9NYW3); assay: Agonist activity at human TAS2R7 expressed in HEK293T cells co-expressing Galpha15 assessed as increase in intracellular calcium level at 20 mM by Calcium-3 dye based fluorescence assay relative to control
T7 sequence (whole entry): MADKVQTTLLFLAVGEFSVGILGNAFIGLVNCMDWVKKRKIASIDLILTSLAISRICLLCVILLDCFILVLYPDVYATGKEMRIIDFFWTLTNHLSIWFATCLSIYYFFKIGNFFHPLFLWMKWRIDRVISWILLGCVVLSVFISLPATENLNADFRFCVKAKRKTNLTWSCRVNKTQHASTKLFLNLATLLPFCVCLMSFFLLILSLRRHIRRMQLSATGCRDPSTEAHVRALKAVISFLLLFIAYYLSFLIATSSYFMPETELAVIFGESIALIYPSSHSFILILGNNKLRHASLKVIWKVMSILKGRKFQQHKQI

Activity [1] [%]	Activity [2] [%]	Activity [3] [%]	Activity [4] [%]	Activity [5] [%]	Activity [6] [%]	Activity [7] [%]	Structure (SMILES)
< 40	< 40	< 40	< 40	< 40	< 40	< 40	[Cl-].[K+] [POTASSIUM CHLORIDE]
< 40	> 40	< 40	< 40	< 40	< 40	< 40	CC1=CC(=O)NS(=O)(=O)O1
< 40	< 40	< 40	< 40	< 40	< 40	< 40	CC(O)C(=O)[O-].[K+] (stereo unspecified)
